In US10632211B2, “Demethylation to treat eye disease” (The Regents of the University of California, priority 2018, dated 2020):

Tests used:
ELOVL2 methylation = experiment: Human clinical use example: ELOVL2 methylation in intravitreal fluid after intravitreal decitabine; format: in vivo
Procedure: (§1) A person with bilateral, dry age-related macular degeneration (AMD) is seen in an ophthalmology clinic. They are otherwise healthy. They consent to an experimental study comparing demethylation therapy verses control. At baseline both eyes show a similar level of AMD as evidenced by clinical assessments for visual acuity, size of geographic atrophy as measured by autofluorescence, optical coherence tomography, and scotopic response on electroretinography. The patient is treated with 100 uL of decitabine (20 uM) formulated as a sterile, isotonic, pH buffered solution administered by intravitreal injection in their left eye (active treatment). They receive 100 ul of the same sterile, isotonic, pH buffered solution but without decitabine administered by intravitreal injection in their right eye (control treatment). Immediately following the administration of the active and control treatments, a sample of intravitreal fluid is withdrawn from each eye for baseline measurements of ELOVL2 expression and methylation level. It is observed that ELOVL2 is hypermethylated to a similar extent in both eyes. The levels of ELOVL2 expression are also similar and a low level of expression is observed in both eyes. […]
(§2) A person with dry age-related macular degeneration (AMD) with Geographic Atrophy is seen in an ophthalmology clinic. Their vision as assessed by scotopic response is declining. […]

patient with dry AMD [1] = experiment: Human clinical use example: clinical assessments (scotopic response, geographic atrophy) after intravitreal decitabine; format: in vivo
Procedure: A person with bilateral, dry age-related macular degeneration (AMD) is seen in an ophthalmology clinic. They are otherwise healthy. They consent to an experimental study comparing demethylation therapy verses control. At baseline both eyes show a similar level of AMD as evidenced by clinical assessments for visual acuity, size of geographic atrophy as measured by autofluorescence, optical coherence tomography, and scotopic response on electroretinography. The patient is treated with 100 uL of decitabine (20 uM) formulated as a sterile, isotonic, pH buffered solution administered by intravitreal injection in their left eye (active treatment). They receive 100 ul of the same sterile, isotonic, pH buffered solution but without decitabine administered by intravitreal injection in their right eye (control treatment). Immediately following the administration of the active and control treatments, a sample of intravitreal fluid is withdrawn from each eye for baseline measurements of ELOVL2 expression and methylation level. It is observed that ELOVL2 is hypermethylated to a similar extent in both eyes. The levels of ELOVL2 expression are also similar and a low level of expression is observed in both eyes. Both the active and control treatments are continued in the left and right eyes respectively with administrations every other week for 3 months. […] Immediately following the last administration, samples of intravitreal fluid are obtained from both eyes for measurement of ELOVL2 gene expression and methylation. The same clinical assessments for geographic atrophy performed at baseline are repeated for each eye. Significant differences are observed between the eye treated with decitabine compared to control. In the decitabine treated eye, ELOVL2 methylation is reduced by almost 30% and ELOVL2 gene expression is increased also by about 30% compared to baseline. Also, the scotopic response is increased by about 30% over baseline. […] In marked contrast, there is no observable change in the control eye in any of the other parameters. Gene methylation and gene expression and scotopic response values remain similar to those observed at baseline values. The patient returns to the clinic for a follow up visit at 6 months. […] Scotopic response in the control eye remains similar to the baseline value.
A person with dry age-related macular degeneration (AMD) with Geographic Atrophy is seen in an ophthalmology clinic. Their vision as assessed by scotopic response is declining. […] They are otherwise healthy. The patient is treated with 100 uL of decitabine (15 uM) formulated as a sterile, isotonic, pH buffered solution administered by intravitreal injection. […] The decitabine treatment is continued with the same dose administered every 5 weeks over a 12 month period. […] Following the last decitabine administration a sample of vitreous fluid is obtained and tested for ELOVL2 gene methylation and ELOVL2 gene expression. The studies reveal ELOVL2 methylation has decreased by almost 60% (from baseline) and ELOVL2 gene expression is increased by about 50% (over the baseline value).

ELOVL2 gene expression = experiment: Human clinical use example: ELOVL2 gene expression in intravitreal fluid after intravitreal decitabine; format: in vivo
Procedure: as §1, §2

ELOVL2 promoter [2] = experiment: ELOVL2 methylation by MeDIP in mouse retinas after intraocular injection; format: in vivo; details: mouse retina, 1 μL of 2 μM intraocular every other week for 2 months from age 10 months, vs PBS eye; MeDIP (FIG. 5A)
Procedure: (§3) Finally, it was investigated whether the aging characteristics in mouse eyes could be reverted by DNA demethylation, including the ELOVL2 promoter. To do that, each mouse was injected with 1 μL of 2 μM 5-Aza-dc in one eye and 1 μL of PBS in the other eye, every other week over a period of 2 months starting at age of 10 months. It was found, using the MeDIP method, that methylation of the ELOVL2 promoter decreased after treatment (FIG. 5A).
(§4) DNA and RNA were isolated from human fibroblasts and mouse tissues with TRIzol (Ambion) according to manufacturer's instructions. RNA was converted to cDNA with iScript cDNA Synthesis Kit (Bio-Rad). qPCR was performed using SsoAdvanced Universal SYBR Green Supermix (Bio-Rad).
Methylated DNA Immunoprecipitation (MeDIP) was performed by shearing 1 μg DNA by Bioruptor (Diagenode) for 8 cycles on the high setting, each cycle consisting of 30 seconds on and 30 seconds off. Sheared DNA was denatured, incubated with 1 μg 5 mC antibody MABE146 (Millipore) for 2 hours, then with SureBeads protein G beads (Bio-Rad) for 1 hour. After washing, DNA was purified with QIAquick PCR Purification Kit (Qiagen). qPCR was then performed as above.
All animal procedures were conducted with the approval of the Institutional Animal Care Committee at the University of California, San Diego. C57BL/6N mouse zygotes were injected with CRISPR-Cas9 constructs. […]

WI-38 cells = experiment: Senescence-associated β-galactosidase staining of 5-Aza-dc treated WI-38 cells; format: cell-based, human; details: WI-38 fibroblasts, 2 μM; SA-β-Gal staining (FIG. 2C)
Procedure: (§5) The effect of the ELOVL2 promoter methylation level on ELOVL2 expression was tested. WI-38 fibroblasts were treated with 5-Aza-2′-deoxycytidine (5-Aza-dc), a cytidine analog that inhibits DNA methyltransferase. The cells were treated for 2 days with 2 μM 5-Aza-dc followed by 5 days of culture without the compound. At the end of experiment, the expression of ELOVL2 was measured by qRT-PCR.
WI-38 and IMR-90 human fibroblasts were cultured in EMEM (ATCC) supplemented with 10% fetal bovine serum (Omega) and 1% penicillin/streptomycin (Gibco), and kept in a humidified incubator at 5% CO2 and 37° C. Confluence was calculated via ImageJ imaging software, including 3 fields of view per sample (10×). Upon confluence, cells were split and seeded at a 1:3 ratio. Population doublings (PD) were calculated by cell count. Knockdown lentivirus was generated using MISSION shRNA (Sigma) according to the manufacturer's instructions. […]
The SA-β-gal activity in cultured cells was determined using the Senescence β-Galactosidase Staining Kit (Cell Signaling Technology), according to the manufacturer's instructions. Cells were stained with DAPI afterwards, and percentages of cells that stained positive were calculated with imaging software (Keyence), including 3 fields of view (10×).

mouse eyes = experiment: Scotopic ERG response in mouse eyes after intraocular injection; format: in vivo; details: 1 μL of 2 μM intraocular every other week for 2 months from age 10 months, vs PBS eye (FIG. 5C, FIG. 13)
Procedure: as §3
(§6) All animal procedures were conducted with the approval of the Institutional Animal Care Committee at the University of California, San Diego. C57BL/6N mouse zygotes were injected with CRISPR-Cas9 constructs. Oligos were injected into the cytoplasm of the zygotes at the pronuclei stage. Mice were housed on static racks in a conventional animal facility, and were fed ad libitum with Teklad Global 2020X diet. For the 5-Aza-dc injection study, mice were anesthetized by intraperitoneal injection of ketamine/xylazine (100 mg/kg and 10 mg/kg, respectively), and given an analgesic eye drop of Proparacaine (0.5%, Bausch & Lomb). Animals were intraocularly injected with 1 μL of PBS in one eye, and 1 μL of 2 μM 5-Aza-dc dissolved in PBS in the contralateral eye, every other week over a period of 2 months.
Electroretinograms (ERGs) were performed following a previously reported protocol. […]

ELOVL2 expression [3] = experiment: ELOVL2 expression by qRT-PCR in 5-Aza-dc treated WI-38 cells; format: cell-based, human; details: WI-38 fibroblasts, 2 μM for 2 days followed by 5 days without the compound; qRT-PCR vs untreated control (FIG. 2B)
Procedure: as §5
(§7) WI-38 and IMR-90 human fibroblasts were cultured in EMEM (ATCC) supplemented with 10% fetal bovine serum (Omega) and 1% penicillin/streptomycin (Gibco), and kept in a humidified incubator at 5% CO2 and 37° C. Confluence was calculated via ImageJ imaging software, including 3 fields of view per sample (10×). Upon confluence, cells were split and seeded at a 1:3 ratio. Population doublings (PD) were calculated by cell count. Knockdown lentivirus was generated using MISSION shRNA (Sigma) according to the manufacturer's instructions. 5-Aza-2′-deoxycitidine was purchased from TSZ Chem (CAS #2353-33-5), and dissolved in cell culture medium at a concentration of 2 μM. Cells were treated for a period of 48 hours. The medium was then replaced with regular cell culture medium, and the cells were cultured for 5 more days.
(§8) DNA and RNA were isolated from human fibroblasts and mouse tissues with TRIzol (Ambion) according to manufacturer's instructions. […]

ELOVL2 promoter [4] = experiment: ELOVL2 promoter methylation by MeDIP followed by qPCR in 5-Aza-dc treated WI-38 cells; format: cell-based, human; details: WI-38 fibroblasts, 2 μM for 2 days followed by 5 days of culture without the compound; MeDIP-qPCR vs untreated control (FIG. 2A)
Procedure: as §5, §7, §8

ELOVL2 expression [5] = experiment: ELOVL2 expression by qPCR in mouse retinas after intraocular injection; format: in vivo; details: mouse retina, 1 μL of 2 μM intraocular every other week for 2 months from age 10 months, vs PBS eye; qPCR (FIG. 5B)
Procedure: as §3, §4
as §6, with “Animals were intraocularly injected with 1 μL of PBS in one eye, and 1 μL of 2 μM 5-Aza-dc dissolved in PBS in the contralateral eye, every other week over a period of 2 months.” left out

patient with dry AMD [6] = experiment: Human clinical use example: tolerability of intravitreal decitabine; format: in vivo
Procedure: as §1, §2

[7] = Geographic Atrophy patient, 100 uL of 15 uM intravitreal every 5 weeks over 12 months
[8] = dry AMD patient, 100 uL of 20 uM intravitreal every other week for 3 months

Nc1ncn([C@H]2C[C@H](O)[C@@H](CO)O2)c(=O)n1 [5-Aza-dc, 5-Aza-2′-deoxycytidine]
ELOVL2 methylation decreased from baseline (ELOVL2 methylation; [7]): ~60% | ELOVL2 methylation reduced compared to baseline (ELOVL2 methylation; [8]): about 30% | geographic atrophy growth by fundus autofluorescence (patient with dry AMD [1]; [7]): no geographic atrophy growth | scotopic response increased over baseline (patient with dry AMD [1]; [7]): about 30% | scotopic response improvement over baseline (patient with dry AMD [1]; dry AMD patient, 20 uM bi-weekly for 3 months, follow up visit at 6 months): 20%-30% | growth of geographic atrophy by fundus autofluorescence compared to baseline (patient with dry AMD [1]; [8]): no progression | scotopic response increased over baseline (patient with dry AMD [1]; dry AMD patient, 100 uL of 20 uM intravitreal every other week for 3 months, after last administration): about 30% | ELOVL2 gene expression increased over the baseline value (ELOVL2 gene expression; [7]): about 50% | ELOVL2 gene expression increased compared to baseline (ELOVL2 gene expression; [8]): about 30% | methylation of the ELOVL2 promoter (ELOVL2 promoter [2]): decreased | percentage of senescent cells in culture (WI-38 cells): lower percentage of senescent cells | scotopic response (ERG) (mouse eyes): improved | ELOVL2 expression (ELOVL2 expression [3]): upregulated | ELOVL2 promoter methylation (ELOVL2 promoter [4]): reduced | ELOVL2 expression (ELOVL2 expression [5]): upregulated | tolerability (patient with dry AMD [6]; [7]): well tolerated with no adverse effects observed | tolerability (patient with dry AMD [6]; [8]): equally well tolerated
